This is an account of results in PubChem BioAssay (NCI).

Test systems include 786-0 renal; ACHN renal; CAKI-1 renal; COLO 205 colon; HL-60(TB) leukemia; HS 578T breast; MDA-MB-231 breast; OVCAR-3 ovarian; SK-MEL-28 melanoma; SK-OV-3 ovarian.
Holding throughout (assay): inhibition of tumour cell growth, NCI panel, 48 h

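Cultured in 96-well plates, cells were exposed to test compound for 48 hours across five concentrations. At the GI50, growth is halved. TGI denotes the concentration required for complete inhibition of growth.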

As for `C=CC(C)(O)CC/C=C(\CO)C(=O)OC1C(C)OC(O[C@](C)(C=C)CC/C=C(\CO)C(=O)O[C@H]2C[C@@]3(C(=O)OC4OC(CO)C(O)C(O)C4OC4OC(C)C(OC5OC(CO)C(O)C5O)C(OC5OC(CO)C(O)C(O)C5O)C4O)C(CC2(C)C)C2=CCC4[C@@]5(C)CC[C@H](OC6OC(COC7OC(C)C(O)C(O)C7OC7OCC(O)C(O)C7O)C(O)C(O)C6NC(C)=O)C(C)(C)C5CC[C@@]4(C)[C@]2(C)C[C@H]3O)C(O)C1O` (stereo not given in full), the GI50 with 786-0 renal was 0.155 µM; with ACHN renal, 0.0771 µM; with CAKI-1 renal, 0.196 µM; with COLO 205 colon, 0.168 µM; in the test with HL-60(TB) leukemia, 0.13 µM; in the test with HS 578T breast it was 0.989 µM. The GI50 is 0.0722 µM in the test with MDA-MB-231 breast, 0.0947 µM in the test with OVCAR-3 ovarian, 0.0852 µM with SK-MEL-28 melanoma and 0.203 µM with SK-OV-3 ovarian. The TGI in the test with 786-0 renal is 0.668 µM; in the test on ACHN renal, 0.209 µM; with CAKI-1 renal, 0.916 µM; with COLO 205 colon it was 0.927 µM; in the test on HL-60(TB) leukemia it was 2.53 µM; in the test on HS 578T breast, 7.16 µM. Also, the TGI in the test with MDA-MB-231 breast is 0.39 µM; in the test on OVCAR-3 ovarian it was 0.344 µM; with SK-MEL-28 melanoma, 0.248 µM; with SK-OV-3 ovarian, 0.794 µM.

On to `O=C(CCCCCCCCC(=O)N/N=C\c1cc(Cl)ccc1O)N/N=C\c1cc(Cl)ccc1O`, for which the GI50 is 0.287 µM in the test on 786-0 renal; 0.175 µM with ACHN renal; 0.251 µM in the test on CAKI-1 renal; 3.19 µM with COLO 205 colon; 0.164 µM in the test with HL-60(TB) leukemia; 16.4 µM in the test on HS 578T breast. The GI50 in the test on MDA-MB-231 breast is 0.265 µM; in the test with OVCAR-3 ovarian it was 0.311 µM; with SK-MEL-28 melanoma, 2.64 µM; with SK-OV-3 ovarian, 0.685 µM. The TGI is 15.5 µM with 786-0 renal; greater than 100 µM in the test with ACHN renal; greater than 100 µM in the test on CAKI-1 renal; greater than 100 µM in the test on COLO 205 colon; 0.571 µM in the test with HL-60(TB) leukemia; greater than 100 µM in the test with HS 578T breast. Also, the TGI in the test on MDA-MB-231 breast was greater than 82.6 µM; with OVCAR-3 ovarian it was greater than 100 µM; in the test with SK-MEL-28 melanoma, greater than 100 µM; with SK-OV-3 ovarian, 79.9 µM.

For the compound `COc1cccc2c1cc1c3c(cc4c(c32)OCO4)C(=O)N1`, the GI50 was 7.15 µM in the test with 786-0 renal; 3.76 µM in the test with ACHN renal; 22.4 µM with CAKI-1 renal; 2.3 µM with COLO 205 colon; 7.59 µM with HL-60(TB) leukemia; 2.33 µM with HS 578T breast. Moreover, the GI50 in the test on MDA-MB-231 breast was 7.9 µM; in the test with OVCAR-3 ovarian, 2.5 µM; in the test on SK-MEL-28 melanoma it was 13.1 µM; with SK-OV-3 ovarian, 13.6 µM. Further, the TGI with 786-0 renal is 33.3 µM; in the test with ACHN renal it was 15.4 µM; in the test on CAKI-1 renal it was greater than 100 µM; in the test on COLO 205 colon, 5.39 µM; in the test on HL-60(TB) leukemia it was 27.8 µM; with HS 578T breast, 6.82 µM. Moreover, the TGI in the test with MDA-MB-231 breast is 47.2 µM; with OVCAR-3 ovarian it was 5.58 µM; with SK-MEL-28 melanoma it was 67.2 µM; in the test with SK-OV-3 ovarian it was 48.9 µM.

Regarding `CCCCCCCCCCCCCCCCOCC(O)CO` (stereo not given), the TGI worked out at 32.8 µM in the test on 786-0 renal; 33.6 µM with ACHN renal; 35 µM with CAKI-1 renal; 50.8 µM in the test with COLO 205 colon; 23.4 µM in the test with HL-60(TB) leukemia; 39.7 µM in the test on HS 578T breast. Besides, the TGI with MDA-MB-231 breast is 35.6 µM; with OVCAR-3 ovarian, 46.7 µM; in the test with SK-MEL-28 melanoma, 33.3 µM; with SK-OV-3 ovarian it was 31.3 µM.

Consider `CCCOC(=O)C1C2CCC(O2)C1C(=O)O` (stereo not given), for which the TGI in the test on 786-0 renal, with ACHN renal, in the test on CAKI-1 renal, in the test with COLO 205 colon, in the test with HL-60(TB) leukemia and in the test with HS 578T breast was greater than 100 µM throughout. In addition, the TGI with MDA-MB-231 breast, in the test on OVCAR-3 ovarian, in the test on SK-MEL-28 melanoma and in the test on SK-OV-3 ovarian was greater than 100 µM in each case.

For `NS(=O)(=O)c1ccc(NC(=O)c2cccc(NC3=C(Cl)C(=O)N(Cc4ccccc4)C3=O)c2)cc1`, the GI50 is 21.5 µM in the test on 786-0 renal; 14.7 µM in the test on ACHN renal; 12.5 µM in the test on CAKI-1 renal; 22.6 µM with COLO 205 colon; 2.02 µM with HL-60(TB) leukemia; 7.92 µM with HS 578T breast. For the same compound, the GI50 was 6.93 µM in the test with MDA-MB-231 breast, 12.4 µM in the test on OVCAR-3 ovarian, 20 µM with SK-MEL-28 melanoma and 26.9 µM in the test with SK-OV-3 ovarian. Also, the TGI is greater than 100 µM in the test on 786-0 renal; 33.2 µM with ACHN renal; 25.9 µM in the test on CAKI-1 renal; 85.8 µM in the test on COLO 205 colon; 6.01 µM with HL-60(TB) leukemia; 36.7 µM in the test with HS 578T breast. Besides, the TGI in the test with MDA-MB-231 breast is 37 µM; in the test with OVCAR-3 ovarian it was 27 µM; in the test on SK-MEL-28 melanoma, 42.9 µM; with SK-OV-3 ovarian it was 77.5 µM.

Turning to `Cc1ccc(-c2n[nH]c(=O)c3noc(-c4ccc(C)cc4)c23)cc1`, the GI50 in the test with 786-0 renal was 2.78 µM; in the test on ACHN renal, 3.16 µM; in the test on CAKI-1 renal, 2.27 µM; with COLO 205 colon, 0.752 µM; with HL-60(TB) leukemia it was 0.31 µM; with HS 578T breast, 1.31 µM. Further, the GI50 with MDA-MB-231 breast was 1.77 µM; with OVCAR-3 ovarian it was 1 µM; in the test on SK-MEL-28 melanoma, 10.2 µM; with SK-OV-3 ovarian it was 1.51 µM. In addition, the TGI is 24.9 µM with 786-0 renal; 73.3 µM with ACHN renal; greater than 100 µM with CAKI-1 renal; 5.05 µM in the test on COLO 205 colon; greater than 100 µM in the test with HL-60(TB) leukemia; 15.9 µM with HS 578T breast. The TGI in the test on MDA-MB-231 breast is 39.8 µM; with OVCAR-3 ovarian, 3.41 µM; with SK-MEL-28 melanoma it was greater than 100 µM; in the test on SK-OV-3 ovarian, 11.5 µM.

Turning to `Cn1cc(C2=C(c3cn(CCCCC(=N)N)c4ccccc34)C(=O)NC2=O)c2ccccc21`, the GI50 in the test with 786-0 renal was greater than 25 µM; in the test on ACHN renal, greater than 25 µM; with CAKI-1 renal, greater than 25 µM; in the test on COLO 205 colon it was 11.8 µM; with HL-60(TB) leukemia it was 16.7 µM; with HS 578T breast, greater than 25 µM. Besides, the GI50 is greater than 25 µM in the test with MDA-MB-231 breast, greater than 23.7 µM with OVCAR-3 ovarian, greater than 25 µM in the test with SK-MEL-28 melanoma and greater than 25 µM with SK-OV-3 ovarian. Also, the TGI in the test with 786-0 renal, in the test on ACHN renal, with CAKI-1 renal, in the test on COLO 205 colon, in the test with HL-60(TB) leukemia and in the test with HS 578T breast was greater than 25 µM throughout. Besides, the TGI with MDA-MB-231 breast, in the test with OVCAR-3 ovarian, in the test on SK-MEL-28 melanoma and with SK-OV-3 ovarian was greater than 25 µM each time.
